# Test results as given in publication PMC9920413, “New Bicyclic Pyridine-Based Hybrids Linked to the 1,2,3-Triazole Unit: Synthesis via Click Reaction and Evaluation of Neurotropic Activity and Molecular Docking” (Molecules, 2023).
# Several values for one entry are separate records, joined by “and”; a condition that tells them apart may be missing. Identical values can stand only once.
# How the values were obtained:
# [1] = test system: thiosemicarbazide (TSC)-induced convulsions; test: Thiosemicarbazide (TSC) seizures; type: in vivo, mice; details: mice; for Latency of Convulsions, Induced by TSC, M ± M: compound 100 mg/kg i.p. 45 min before TSC 18 mg/kg s.c.; for Latency of Convulsions, Induced by TSC, I (index of latent period of TSC seizures) / response vs control in vivo at 100 mg/kg: compound 100 mg/kg i.p., relative to control = 1.0; for response vs control in vivo at 100 mg/kg: Mus musculus, ip, read-out: Latency of Convulsions, Induced by TSC, I (index of latent period of TSC seizures)
# Method: (§1) The study of the anticonvulsant activity of hybrids 7a–u was assessed by evaluating the antagonism to pentylenetetrazole (PTZ), thiosemicarbazide convulsive seizures, and maximal electroshock-induced seizures (MES). The PTZ-induced test is considered an experimental model for the clonic component of epilepsy seizures and the prognostic anxiolytic activity of the compounds. PTZ is a common convulsive agent used in animal models to investigate the mechanisms of seizures. The model of thiosemicarbazide (TSC) seizures (affecting the exchange of GABA) causes clonic seizures similar to pentylenetetrazole ones. The MES test is used as an animal model for the generalization of tonic seizures in epilepsy. The neurotoxicity and side effects of the compounds (movement coordination disorder, myorelaxation, and ataxia) were also studied on mice with the “rotating rod”[29] test.
# Thiosemicarbazide, an antimetabolite of GABA inhibitor (glutamic acid decarboxylase) in the brain, is administered subcutaneously to mice at a dose of 18 mg/kg as a 0.5% solution, which causes clonic convulsions in animals. Anti-thiosemicarbazide activity was evaluated based on the latency time of the onset of seizures. Compounds were administered intraperitoneally at doses of 100 mg/kg in suspension with carboxymethylcellulose and Tween-80 45 min before administration of thiosemicarbazide.
# [2] = test system: mice; test: Forced swimming test; details: 50 mg/kg, 6 min; for Total Time of Immobilization: control 42.0 ± 7.24; for Total Time of Active Swimming: control 318.0 ± 8.36;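 for all read-outs here: mice made to swim in a water-filled glass vessel under natural light, with durations of active swimming and immobility recorded across the 6 min session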
# Method: Forced swimming test. To assess “despair and depression”, the “compelling swimming” model was used. Experimental animals were forced to swim in a glass container (height 22 cm, diameter 14 cm), filled 1/3 with water. […] The latent period of immobilization, the total duration of active swimming and immobilization are fixed at 6 min (the experiments were conducted under natural light).
# [3] = test system: rats; test: Open field test; type: in vivo; details: 50 mg/kg i.p.; for Cells Examination, amount (absolute data during 5 min): control 2.4 ± 0.67; for Vertical Displacement, amount (absolute data during 5 min): control 7.0 ± 2.14; for Horizontal Displacement, amount (absolute data during 5 min): control 21.6 ± 2.25
# Method: Open field test. The research-motor behavior of rats was studied on a modified “open field” model. For this purpose, an installation was used, the bottom of which is divided into squares with holes (cells). Experiments were performed in the daytime with natural light. Within 5 min of the experiment, the indicators of sedative and activating behavior were determined, namely the number of horizontal movements, standing on the hind legs (vertical movements), and sniffing of the cells. The number of animals on this model was eight for each compound, control, and reference drug.
# [4] = test system: pentylenetetrazole (PTZ)-induced convulsions; test: Antagonism to pentylenetetrazole (PTZ) convulsions; type: in vivo; details: for ED50 (by PTZ antagonism) / ED50: mice, i.p. 45 min before PTZ 90 mg/kg s.c., confidence limits in brackets, p = 0.05; for TI: therapeutic index TI = LD50/ED50; for ED50: Mus musculus, read-out: ED50 (by PTZ antagonism)
# Method: as §1
# The anticonvulsant effect of the newly synthesized compounds was investigated by tests comprising pentylenetetrazole, thiosemicarbazide convulsions, and maximal electroshock (MES). Outbred mice (weight 18–22 g) were used for the study. […] Each animal is placed into an individual plastic cage for observation lasting 1 h. Seizures and clonic convulsions were recorded. […] The control animals were administered as an emulsifier. Every dose of each test compound was studied in six animals.
# (§2) Adverse neurotoxic (muscle relaxant) effects of compounds were studied at doses of 50 to 500 mg/kg when administered intraperitoneally, as well as reference drugs in effect at anticonvulsant doses. Myorelaxation was investigated with the test of a “rotating rod” in mice. To this end, mice were planted on a metal rod with a corrugated rubber coating, which rotated at a speed of 5 revolutions per minute. The number of animals that cnot stay on it for 2 min was determined. To determine the ED50, neurotoxic TD50, and LD50, the statistical method of penetration by Litchfield and Wilcoxon was used.
# [5] = test system: mice; test: Rotating rod test (neurotoxicity, myorelaxation); type: in vivo; details: i.p., myorelaxation in 50% of animals
# Method: as §1, §2
# [6] = test system: mice; test: in vivo; details: dead animals after 24 h
# Method: as §2
# [7] = test system: mouse; test: Elevated plus maze (EPM) test; type: in vivo; details: 50 mg/kg i.p., 5 min; for Number of Entries into the Closed Arms: control 9.4 ± 1.6; for Time Spent in the Center: control 28.2 ± 3.12; for Time Spent in Closed Arms: control 269.2 ± 10.4
# Excerpt: Elevated plus maze—EPM test. Anti-anxiety and sedative effects were studied on mouse a model of the “elevated plus maze”. The labyrinth is a cruciform machine raised above the floor, with a pair of open and closed sleeves opposed to each other. Normal animals prefer to spend most of their time in the closed (dark) sleeves of the labyrinth. The anxiolytic effect of the compounds was estimated by the increase in the number of entries into open (light) sleeves and the time spent in them without increasing the total motor activity. This records the time spent in the closed sleeve and the number of attempts to enter the installation center. In the above model, the test compounds and the reference drug were injected intraperitoneally before the experiments. The control animals were administered as an emulsifier. Results were processed statistically (p < 0.05).
# [8] = Rotating rod test (neurotoxicity, myorelaxation); type: in vivo; details: outbred, mouse, in vivo, ip, mice, myorelaxation in 50% of animals
# Method: as §1, §2
# [9] = test system: rats; test: Electroshock retrograde amnesia, conditioned response of passive avoidance (CRPA); type: in vivo; details: 50 mg/kg, study for 5 min; for The Time Spent in the Light Chamber during the Training of the CRPA, First Day: control 280.0 ± 7.5; for The Time Spent in the Light Chamber When Playing CRPA + MESH after 24 h, Second Day: control 281.0 ± 6.1
# Method: Test for learning and memory. The antiamnesic properties of the compounds were studied using an electroshock amnesia model modified by J. Bures, O. Buresova. In rats, a conditioned passive avoidance reaction (CRPA) to a dark-light setting was developed, while the training of the animals with CRPA was recorded. The residence times in the light and dark compartments were recorded for 5 min (300 s). Then, in the dark compartment, the animal received a single current shock (0.4 mA) through the electrode floor (training). To obtain amnesia, a maximum electroconvulsive seizure is induced in animals (conducting a maximum electric current of 50 Hz for 0.2 s through corneal electrodes). Conducting an electric shock immediately after training causes the erasure of the memory trace. The test for reproduction is carried out 24 h after training—after the development of CRPA. During this period, the control animals forget the training and prefer to be in the dark part of the chamber. An increase in the time spent by rats in the light compartment compared to the control on the second day indicates the presence of antiamnestic properties of the compounds.
# [10] = in vivo; details: outbred, mouse, in vivo; mice, dead animals after 24 h
# Method: as §2
Molecule,"Latency of Convulsions, Induced by TSC, M ± M [1] [min]","Latency of Convulsions, Induced by TSC, I (index of latent period of TSC seizures) [1]",Total Time of Immobilization [2] [s],Total Time of Active Swimming [2] [s],"Cells Examination, amount (absolute data during 5 min) [3]","Vertical Displacement, amount (absolute data during 5 min) [3]","Horizontal Displacement, amount (absolute data during 5 min) [3]",ED50 (by PTZ antagonism) [4],TI [4],TD50 [5] [mg/kg],Time Spent in the Open Arms ([7]; control 2.6 ± 1.6) [s],Number of Entries into the Closed Arms [7],Time Spent in the Center [7] [s],Time Spent in Closed Arms [7] [s],response vs control in vivo at 100 mg/kg [1] [%],ED50 [4] [mg/kg],TD50 at 2 min [8] [mg/kg],"The Time Spent in the Light Chamber during the Training of the CRPA, First Day [9] [s]","The Time Spent in the Light Chamber When Playing CRPA + MESH after 24 h, Second Day [9] [s]",LD50 at 24 h [10] [mg/kg],also measured
"6-{4-[(4-{[(4-Cyano-1-methyl-5,6,7,8-tetrahydroisoquinolin-3-yl)oxy]methyl}-1H-1,2,3-triazol-1-yl)acetyl]piperazin-1-yl}-3,3-dimethyl-1-propyl-3,4-dihydro-1H-pyrano [3,4-c]pyridine-5-carbonitrile [7f]",40.6 ± 1.11,4.06,66.0 ± 4.48,296.0 ± 16.85,3.2 ± 1.03,10.8 ± 3.67,39.2 ± 4.92,28 (22.2 ÷ 35.3) mg/kg,28.9,>500,16.0 ± 2.09,3.0 ± 0.89,22.0 ± 6.32,264.0 ± 13.48,–,–,–,–,–,–,LD50 [6]: 810 (686 ÷ 956) mg/kg
"6-{4-[(4-{[(5-Cyano-3,3-dimethyl-8-propyl-3,4-dihydro-1H-pyrano [3,4-c]pyridin-6-yl)oxy]methyl}-1H-1,2,3-triazol-1-yl)acetyl]piperazin-1-yl}-1-ethyl-3,3-dimethyl-3,4-dihydro-1H-pyrano [3,4-c]pyridine-5-carbonitrile [7t]",43.8 ± 4.34,4.38,62.0 ± 6.77,298.0 ± 16.64,2.6 ± 0.79,10.6 ± 3.84,46.0 ± 7.37,30 (24.2 ÷ 42) mg/kg,25.6,>500,23.0 ± 5.51,1.6 ± 0.67,9.0 ± 2.2,268.0 ± 5.56,–,–,–,–,–,–,LD50 [6]: 768 (640 ÷ 922) mg/kg
"Cc1nc(N2CCN(C(=O)Cn3cc(COc4nc(C(C)C)c5c(c4C#N)CCC5)nn3)CC2)c(C#N)c2c1COC(C)(C)C2 [7a, 6-{4-[(4-{[(4-Cyano-1-isopropyl-6,7-dihydro-5H-cyclopenta[c]pyridin-3-yl)oxy]methyl}-1H-1,2,3-triazol-1-yl)acetyl]piperazin-1-yl}-3,3,8-trimethyl-3,4-dihydro-1H-pyrano [3,4-c]pyridine-5-carbonitrile]",43.0 ± 5.2,–,18.6 ± 3.2,341.4 ± 6.2,8.6 ± 1.89,6.8 ± 3.42,44.4 ± 10.1,–,44.5,–,15.0 ± 2.1,5.6 ± 2.1,22.4 ± 3.99,262.6 ± 14.6,430,20,> 500,286.0 ± 4.3,298.0 ± 6.9,890,–
"Cc1nc(N2CCN(C(=O)Cn3cc(COc4nc(-c5ccco5)c5c(c4C#N)CCCC5)nn3)CC2)c(C#N)c2c1COC(C)(C)C2 [7j, 6-(4-{[4-({[4-Cyano-1-(2-furyl)-5,6,7,8-tetrahydroisoquinolin-3-yl]oxy}methyl)-1H-1,2,3-triazol-1-yl]acetyl}piperazin-1-yl)-3,3,8-trimethyl-3,4-dihydro-1H-pyrano [3,4-c]pyridine-5-carbonitrile]",41.0 ± 3.95,–,14.0 ± 3.37,346.0 ± 11.35,9.8 ± 3.53,10 ± 3.39,54.6 ± 10.03,–,42.3,–,19.6 ± 3.5,5.9 ± 2.1,19.2 ± 4.15,261.2 ± 20.8,410,22,> 500,293.0 ± 7.2,120.0 ± 5.8,930,–
"Cc1nc(OCc2cn(CC(=O)N3CCN(c4nc(C)c5c(c4C#N)CC(C)(C)OC5)CC3)nn2)c(C#N)c2c1COC(C)(C)C2 [7m, 6-{4-[(4-{[(5-Cyano-3,3,8-trimethyl-3,4-dihydro-1H-pyrano [3,4-c]pyridin-6-yl)oxy]methyl}-1H-1,2,3-triazol-1-yl)acetyl]piperazin-1-yl}-3,3,8-trimethyl-3,4-dihydro-1H-pyrano [3,4-c]pyridine-5-carbonitrile]",36.6 ± 1.11,–,5.0 ± 1.2,355.0 ± 5.0,13.4 ± 5.56,12 ± 3.95,59.8 ± 9.58,–,54.7,–,–,6.4 ± 1.11,48.8 ± 5.14,175.4 ± 6.23,366,15,> 500,282.0 ± 6.8,296.0 ± 5.4,820,"Time Spent in the Open Arms ([7]; control 2.6 ± 1.6, 50 mg/kg): 66.4 s and 66.4 ± 7.78 s"
